Experimental data as given in paper PMC6351562, “Structure, function, and inhibition of drug reactivating human gut microbial β-glucuronidases” (Scientific Reports, 2019).
Read-outs that look alike come from different tables or passages of the source.

Tests used:
[1] = target: T1, Eubacterium eligens GUS (EeGUS) (Lachnospira eligens, UniProt C4Z6Z2); experiment: In vitro inhibition assay (pNPG hydrolysis); format: biochemical; conditions: pNPG 900 µM
T1 sequence (C4Z6Z2 1-611): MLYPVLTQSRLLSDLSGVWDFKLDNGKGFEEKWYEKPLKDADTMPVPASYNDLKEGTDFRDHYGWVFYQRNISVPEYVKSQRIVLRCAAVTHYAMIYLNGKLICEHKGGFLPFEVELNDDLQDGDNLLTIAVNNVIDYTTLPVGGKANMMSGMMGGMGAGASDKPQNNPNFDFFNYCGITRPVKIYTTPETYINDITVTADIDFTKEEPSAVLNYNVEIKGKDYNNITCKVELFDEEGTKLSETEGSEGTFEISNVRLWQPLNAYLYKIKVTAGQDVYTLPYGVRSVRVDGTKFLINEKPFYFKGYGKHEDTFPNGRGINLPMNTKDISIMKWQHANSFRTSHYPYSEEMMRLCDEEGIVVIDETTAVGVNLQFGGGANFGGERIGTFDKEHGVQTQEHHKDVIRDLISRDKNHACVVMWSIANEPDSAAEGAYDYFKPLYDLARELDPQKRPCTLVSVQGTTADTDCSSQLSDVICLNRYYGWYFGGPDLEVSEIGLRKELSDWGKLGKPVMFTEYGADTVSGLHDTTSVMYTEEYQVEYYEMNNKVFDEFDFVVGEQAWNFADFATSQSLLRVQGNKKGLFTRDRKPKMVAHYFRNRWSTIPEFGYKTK

[2] = target: E. coli GUS (EcGUS) (Escherichia coli, UniProt P05804); experiment: In vitro inhibition assay (pNPG hydrolysis); format: biochemical; conditions: for IC50: pNPG 900 µM, 1 hour end point
E. coli GUS (EcGUS), sequence (P05804 whole entry): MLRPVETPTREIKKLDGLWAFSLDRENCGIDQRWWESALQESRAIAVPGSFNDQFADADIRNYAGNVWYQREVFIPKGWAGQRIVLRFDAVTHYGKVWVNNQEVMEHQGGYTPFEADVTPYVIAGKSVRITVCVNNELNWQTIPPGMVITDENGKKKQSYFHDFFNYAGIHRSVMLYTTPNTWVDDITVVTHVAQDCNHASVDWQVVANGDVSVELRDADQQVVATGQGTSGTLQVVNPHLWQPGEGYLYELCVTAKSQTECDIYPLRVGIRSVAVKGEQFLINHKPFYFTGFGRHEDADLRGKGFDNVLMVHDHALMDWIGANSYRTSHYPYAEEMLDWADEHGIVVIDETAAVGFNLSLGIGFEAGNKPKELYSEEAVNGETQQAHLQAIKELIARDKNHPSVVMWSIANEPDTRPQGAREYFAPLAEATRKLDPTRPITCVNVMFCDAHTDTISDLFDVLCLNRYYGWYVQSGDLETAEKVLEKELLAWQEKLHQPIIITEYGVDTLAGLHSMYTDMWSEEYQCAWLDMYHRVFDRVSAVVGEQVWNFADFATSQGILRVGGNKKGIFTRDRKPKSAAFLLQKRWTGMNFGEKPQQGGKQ

[3] = test system: EcGUS F365A; format: biochemical, E. coli; conditions: IC50 curves, Fig. S14
[4] = target: T2, Lactobacillus rhamnosus GUS (LrGUS) (Lacticaseibacillus rhamnosus, UniProt A0A2A5L2J1); experiment: In vitro inhibition assay (pNPG hydrolysis); format: biochemical
T2 sequence (A0A2A5L2J1 1-603): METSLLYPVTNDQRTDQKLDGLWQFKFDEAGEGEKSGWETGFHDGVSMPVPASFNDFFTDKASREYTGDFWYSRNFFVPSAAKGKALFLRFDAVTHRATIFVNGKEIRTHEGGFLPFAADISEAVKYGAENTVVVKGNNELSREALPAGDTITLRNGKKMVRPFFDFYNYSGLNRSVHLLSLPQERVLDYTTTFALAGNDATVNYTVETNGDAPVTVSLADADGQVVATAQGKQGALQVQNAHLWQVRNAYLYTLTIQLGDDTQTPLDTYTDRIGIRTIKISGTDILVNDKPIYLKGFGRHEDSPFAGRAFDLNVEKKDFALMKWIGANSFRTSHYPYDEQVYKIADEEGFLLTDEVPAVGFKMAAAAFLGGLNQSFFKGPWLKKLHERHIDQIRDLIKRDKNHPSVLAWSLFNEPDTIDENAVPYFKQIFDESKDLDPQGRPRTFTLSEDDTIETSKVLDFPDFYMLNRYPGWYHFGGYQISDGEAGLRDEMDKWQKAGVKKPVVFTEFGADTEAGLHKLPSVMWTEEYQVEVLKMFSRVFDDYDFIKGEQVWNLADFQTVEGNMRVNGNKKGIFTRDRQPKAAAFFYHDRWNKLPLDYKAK

[5] = target: T3, Ruminococcus gnavus GUS (RgGUS) (Mediterraneibacter gnavus, UniProt A0A2N5PVZ8); experiment: In vitro inhibition assay (pNPG hydrolysis); format: biochemical
T3 sequence (A0A2N5PVZ8 1-603): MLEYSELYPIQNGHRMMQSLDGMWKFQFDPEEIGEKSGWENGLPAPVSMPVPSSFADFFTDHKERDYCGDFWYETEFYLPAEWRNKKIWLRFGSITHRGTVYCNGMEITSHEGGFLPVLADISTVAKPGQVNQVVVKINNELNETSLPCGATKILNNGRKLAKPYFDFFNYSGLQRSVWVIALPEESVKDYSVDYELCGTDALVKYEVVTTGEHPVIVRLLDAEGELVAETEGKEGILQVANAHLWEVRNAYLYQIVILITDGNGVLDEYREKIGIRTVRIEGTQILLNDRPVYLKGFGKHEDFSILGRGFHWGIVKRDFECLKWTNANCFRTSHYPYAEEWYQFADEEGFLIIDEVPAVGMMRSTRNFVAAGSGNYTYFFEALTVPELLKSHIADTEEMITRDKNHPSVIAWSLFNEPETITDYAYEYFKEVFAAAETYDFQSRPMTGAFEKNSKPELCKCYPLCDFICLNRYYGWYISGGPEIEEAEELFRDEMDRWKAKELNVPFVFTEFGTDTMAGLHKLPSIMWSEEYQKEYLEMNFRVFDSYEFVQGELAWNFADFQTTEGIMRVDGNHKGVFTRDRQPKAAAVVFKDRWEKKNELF

[6] = read-out: Inhibitor 1 (IC50, nM) pH 7.5, pH 7.5, pNPG 900 µM
[7] = pH 7.5, pNPG 900 µM, read-out: UNC10201652 (IC50, nM) pH 7.5
[8] = read-out: UNC10201652 (IC50, nM) pH 6.5

SMILES: CCOc1ccc(NC(=S)N(CCO)Cc2cc3cc(C)cc(C)c3[nH]c2=O)cc1 [Inhibitor 1]
- IC50 ([1]; Inhibitor 1 (IC50, nM) pH 6.5, pH 6.5): > 100000 nM
- IC50 ([1]; Inhibitor 1 (IC50, nM) pH 7.5, pH 7.5): > 100000 nM
- inhibition at 100 µM ([2]; read-out: inhibition at 100 µM Inhibitor 1, 100 µM, pH 6.5 and 7.5): ≥ 80%
- potency toward EcGUS F365 mutant compared with WT [3]: less potent
- IC50 [4]: > 100000 nM
- IC50 [4, 6]: > 100000 nM
- IC50 [5]: > 100000 nM
- IC50 [5, 6]: > 100000 nM

SMILES: C1CCc2c(c(N3CCOCC3)nc3sc4c(N5CCNCC5)nnnc4c23)C1 [UNC10201652]
- IC50 ([1]; pH 6.5, 1 hour end point, read-out: UNC10201652 (IC50, nM) pH 6.5): 1900 ± 100 nM
- IC50 ([1]; pH 7.5, 1 hour end point, read-out: UNC10201652 (IC50, nM) pH 7.5): 410 ± 30 nM
- decrease in potency from pH 7.5 to pH 6.5 ([2]; UNC10201652, IC50 pH 6.5 vs pH 7.5): 3 fold
- IC50 ([2]; pH 6.5, read-out: UNC10201652 (IC50, nM) pH 6.5): 310 ± 20 nM
- IC50 ([2]; pH 7.5, read-out: UNC10201652 (IC50, nM) pH 7.5): 100 ± 8 nM
- potency relative to Inhibitor 1 ([2]; pH 7.5, times more potent than Inhibitor 1): 19 times
- potency toward EcGUS F365 mutant compared with WT [3]: less potent
- IC50 [4, 7]: > 100000 nM
- IC50 [4, 8]: > 100000 nM
- IC50 [5, 7]: > 100000 nM
- IC50 [5, 8]: > 100000 nM
